Reference: PubChem BioAssay (NCI)
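Test compounds were applied to cells in 96-well plates for 48 hours at 5 doses. TGI: concentration producing complete growth inhibition.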 Where a SMILES comes first, the peptide text is derived from it. [ ]: non-standard residue; d: D form. The star is where a group is joined. Chg = N[CH](C(=O)O)C1CCCCC1; Cbz = O=C(OCc1ccccc1)*; OBn = c1ccc(CO*)cc1

Assays:
Assay in all cases: DTP human tumour cell line panel, 48 h
[1] = test system: OVCAR-8 ovarian
[2] = test system: SNB-19 CNS
[3] = test system: NCI-H226 lung
[4] = test system: COLO 205 colon
[5] = test system: T-47D breast
[6] = test system: A549 NSCLC
[7] = test system: SR leukemia
[8] = test system: NCI-H522 lung
[9] = test system: MCF7 breast
[10] = test system: HCC-2998 colon
[11] = test system: SF-268 CNS
[12] = test system: HCT-15 colon
[13] = test system: HS 578T breast
[14] = test system: OVCAR-4 ovarian
[15] = test system: SK-MEL-5 melanoma
[16] = test system: TK-10 renal
[17] = test system: SW-620 colon
[18] = test system: SNB-75 CNS
[19] = test system: OVCAR-5 ovarian
[20] = test system: SK-MEL-28 melanoma
[21] = test system: HT29 colon
[22] = test system: KM12 colon
[23] = test system: HL-60(TB) leukemia
[24] = test system: SK-OV-3 ovarian
[25] = test system: SF-539 CNS
[26] = test system: SK-MEL-2 melanoma
[27] = test system: CAKI-1 renal
[28] = test system: HOP-62 NSCLC
[29] = test system: RPMI-8226 leukemia
[30] = test system: M14 melanoma
[31] = test system: MOLT-4 leukemia
[32] = test system: 786-0 renal
[33] = test system: UACC-62 melanoma
[34] = test system: UACC-257 melanoma
[35] = test system: U251 CNS
[36] = test system: UO-31 renal
[37] = test system: K-562 leukemia
[38] = test system: LOX IMVI melanoma
[39] = test system: HOP-92 NSCLC
[40] = test system: MDA-N
[41] = test system: PC-3 prostate
[42] = test system: MALME-3M melanoma
[43] = test system: ACHN renal
[44] = test system: EKVX NSCLC
[45] = test system: RXF 393 renal
[46] = test system: MDA-MB-435
[47] = test system: NCI-H460 lung
[48] = test system: CCRF-CEM leukemia
[49] = test system: HCT-116 colon
[50] = test system: NCI/ADR-RES ovarian
[51] = test system: SF-295 CNS
[52] = test system: MDA-MB-231 breast
[53] = test system: OVCAR-3 ovarian
[54] = test system: DU-145 prostate
[55] = test system: SN12C renal
[56] = test system: IGROV1 ovarian
[57] = test system: NCI-H23 lung
[58] = test system: A498 renal

COC(=O)C(NC(=O)C(CC(=O)OCc1ccccc1)NC(=O)OCc1ccccc1)C1CCCCC1 (configuration not stated) (Cbz-Asp(OBn)-[Chg]-OMe; configuration not given here)
TGI [1]: > 100 µM
TGI [2]: > 100 µM
TGI [3]: > 100 µM
TGI [4]: > 100 µM
TGI [5]: > 100 µM
TGI [6]: > 100 µM
TGI [7]: > 100 µM
TGI [8]: > 100 µM
TGI [9]: > 100 µM
TGI [10]: > 100 µM
TGI [11]: > 100 µM
TGI [12]: > 100 µM
TGI [13]: 81.3 µM
TGI [14]: > 100 µM
TGI [15]: > 100 µM
TGI [16]: > 100 µM
TGI [17]: > 100 µM
TGI [18]: > 100 µM
TGI [19]: > 100 µM
TGI [20]: > 100 µM
TGI [21]: > 100 µM
TGI [22]: > 100 µM
TGI [23]: > 100 µM
TGI [24]: > 100 µM
TGI [25]: > 100 µM
TGI [26]: > 100 µM
TGI [27]: > 100 µM
TGI [28]: > 100 µM
TGI [29]: > 100 µM
TGI [30]: > 100 µM
TGI [31]: > 100 µM
TGI [32]: > 100 µM
TGI [33]: > 100 µM
TGI [34]: > 100 µM
TGI [35]: > 100 µM
TGI [36]: > 100 µM
TGI [37]: > 100 µM
TGI [38]: > 100 µM
TGI [39]: > 100 µM
TGI [40]: > 100 µM
TGI [41]: > 100 µM
TGI [42]: > 100 µM
TGI [43]: > 100 µM
TGI [44]: > 100 µM
TGI [45]: > 100 µM
TGI [46]: > 100 µM
TGI [47]: > 100 µM
TGI [48]: > 100 µM
TGI [49]: > 100 µM
TGI [50]: > 100 µM
TGI [51]: > 100 µM
TGI [52]: > 100 µM
TGI [53]: > 100 µM
TGI [54]: > 100 µM
TGI [55]: > 100 µM
TGI [56]: > 100 µM
TGI [57]: > 100 µM

OC[C@H]1C[C@@H]2Cc3ccccc3N2N1
TGI [1]: > 100 µM
TGI [2]: > 100 µM
TGI [3]: > 100 µM
TGI [4]: > 100 µM
TGI [5]: > 100 µM
TGI [6]: > 100 µM
TGI [7]: > 100 µM
TGI [8]: > 100 µM
TGI [10]: > 100 µM
TGI [11]: > 100 µM
TGI [12]: > 100 µM
TGI [13]: > 100 µM
TGI [14]: > 100 µM
TGI [15]: > 100 µM
TGI [16]: > 100 µM
TGI [17]: > 100 µM
TGI [18]: > 100 µM
TGI [19]: > 100 µM
TGI [20]: > 100 µM
TGI [21]: > 100 µM
TGI [22]: > 100 µM
TGI [23]: > 100 µM
TGI [24]: > 100 µM
TGI [25]: > 100 µM
TGI [26]: > 100 µM
TGI [27]: > 100 µM
TGI [58]: > 100 µM
TGI [28]: > 100 µM
TGI [30]: > 100 µM
TGI [31]: > 100 µM
TGI [32]: > 100 µM
TGI [33]: > 100 µM
TGI [34]: > 100 µM
TGI [35]: > 100 µM
TGI [37]: > 100 µM
TGI [38]: > 100 µM
TGI [39]: > 100 µM
TGI [40]: > 100 µM
TGI [41]: > 100 µM
TGI [42]: > 100 µM
TGI [43]: > 100 µM
TGI [44]: > 100 µM
TGI [45]: > 100 µM
TGI [46]: > 100 µM
TGI [47]: > 100 µM
TGI [48]: > 100 µM
TGI [49]: > 100 µM
TGI [50]: > 100 µM
TGI [51]: > 100 µM
TGI [52]: > 100 µM
TGI [53]: > 100 µM
TGI [54]: > 100 µM
TGI [55]: > 100 µM
TGI [56]: > 100 µM
TGI [57]: > 100 µM
